Experimental findings from ChEMBL document CHEMBL1134170, “Securiosides A and B, novel acylated triterpene bisdesmosides with selective cytotoxic activity against M-CSF-stimulated macrophages” (Bioorg Med Chem Lett, 2001) are described below.

The species named for one assay is Mus musculus. The assay can be described thus: Cytotoxic activity against M-CSF-stimulated macrophages (from male mice). The assay is classed as functional.
For the next assay, the species on record is Ovis aries. The assay can be described thus: Ability to hemolyze sheep erythrocytes and induce change in macrophage morphology and DNA fragmentation at a concentration of 10 ug/mL; inactive. In kind it is functional.

What is called IC50 is the point on the concentration scale where inhibition reaches its midpoint. A low value points to greater potency in that assay.

Activity calls are given as the source filed them. The rule behind the calls is not given here.

With `COc1ccc(/C=C/C(=O)O[C@H]2[C@H](O)[C@@H](O[C@H]3O[C@H](C)[C@@H](O[C@H]4OCC(O[C@H]5O[C@H](CO)[C@@H](O)[C@@H](O)[C@H]5O)C(O[C@H]5O[C@H](CO)[C@H](O)[C@@H](O)[C@H]5O)[C@H]4O)[C@@H](O)[C@@H]3O)[C@@H](OC(=O)[C@]34CCC(C)(C)C[C@H]3C3=CC[C@@H]5[C@@]6(C)C[C@H](O)[C@H](O[C@@H]7O[C@@H](CO)[C@@H](O)[C@H](O)[C@@H]7O)[C@@](C)(C(=O)O)C6CC[C@@]5(C)[C@]3(CO)CC4)O[C@@H]2C)cc1OC` (some centres undefined) [SECURIOSIDE B], the IC50 in the assay filed under Mus musculus was under 250 nM. In addition, the Hemolysis entry in the assay filed under Ovis aries is “inactive”.

Consider `COc1ccc(/C=C/C(=O)O[C@H]2[C@@H](O[C@H]3O[C@H](COC(C)=O)[C@H](O)[C@H](O)[C@H]3O)[C@@H](O[C@H]3O[C@H](C)[C@@H](O[C@H]4OC[C@H](O)[C@H](O)[C@H]4O)[C@@H](O)[C@@H]3O)[C@H](OC(=O)[C@]34CCC(C)(C)C[C@H]3C3=CC[C@@H]5[C@@]6(C)C[C@H](O)[C@H](O[C@@H]7O[C@@H](CO)[C@@H](O)[C@H](O)[C@@H]7O)[C@@](C)(C(=O)O)C6CC[C@@]5(C)[C@]3(CO)CC4)O[C@@H]2C)cc1OC` (some centres undefined) [SECURIOSIDE A], for which the IC50 in the assay listed under Mus musculus was under 250 nM. Further, the Hemolysis result in the assay filed under Ovis aries was “inactive”.
